Source: PubChem BioAssay (NCI)
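Following 48 hours of exposure in 96-well plates, responses at five concentrations were used to interpolate endpoints linearly. TGI is the concentration that stops growth completely.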

Each compound was assayed on 786-0 renal (assay: NCI tumour cell line growth inhibition, 48 h).

Structure (SMILES)	TGI
O=Cc1ccc2c(c1)CC1(C2)Cc2ccc3c(c2C1)CCC3 (stereo not drawn)	28.3 µM
CC(=O)Nc1cc(C(=O)Nc2cc(C(=O)N3CC(CCl)c4c3cc(N)c3ccccc43)nn2C)nn1C (stereo not drawn)	0.332 µM
O=C(O)c1n[nH]nc1Cl	> 100 µM
C=C(C)C(CC=C(C)C)CC12CC(CC=C(C)C)C(C)(C)C(CC=C(C)C)(C(=O)C(Cc3ccc(O)c(O)c3)=C1O)C2=O (stereo not drawn)	> 100 µM
NC(Cc1cccc([N+](=O)[O-])c1)C(=O)O (stereo not drawn)	> 100 µM
CCC(=O)NC(Nc1cccc(F)c1C)(C(F)(F)F)C(F)(F)F	> 100 µM
CCCCCN=Cc1c(O)c(O)c(C(C)C)c2cc(C)c(-c3c(C)cc4c(C(C)C)c(O)c(O)c(C=NCCCCC)c4c3O)c(O)c12	> 100 µM
Clc1c(Cl)c(Cl)c2nn(C3CCCO3)nc2c1Cl (stereo not drawn)	> 100 µM
N#C/C(C(=O)Nc1ccccc1)=C(/N)N1CCOCC1	> 100 µM
O/N=C1/COC(C(F)(F)F)(C(F)(F)F)C1	> 100 µM
O=c1[nH]c(-c2ccc3ccccc3c2)nc2ccccc12	> 100 µM
CS(=O)(=O)Nc1ccc(N2Cc3cnc4ccc5[nH]ccc2c5c34)cc1	40.3 µM
COc1ccc(C(=O)Sc2c(-c3ccccc3)c(=O)n(-c3ccccc3)c(=S)n2-c2ccccc2)cc1	> 100 µM
CCc1nc(N)nc(N)c1-c1ccc(Cl)c(Cl)c1	> 100 µM
COCCOCc1nc(C#N)c(N)o1	> 100 µM
CC1=C(C#N)C(C#N)(C#N)C(NN(C)C)C1 (stereo not drawn)	25.6 µM
CN1C(=O)N/C(=C\c2ccc(S(=O)(=O)NN)cc2)C1=O	> 100 µM
COc1nc(C(=O)NNC(=O)c2nc(OC)c3ccccc3c2-c2ccccc2)c(-c2ccccc2)c2ccccc12	> 100 µM
CCSc1n/c(=C\c2ccco2)c2nnnn12	> 100 µM
CC(=O)OCc1cc(CCC(=O)NCCNc2c3ccccc3nc3ccccc23)cc(COC(C)=O)c1O[Si](C)(C)C(C)(C)C	31.3 µM
COc1cc(Nc2cnc3cc(F)c(F)cc3n2)cc(OC)c1OC	> 100 µM
Cc1nc2ccccc2c(=O)n1NC(=O)c1ccc(CS)cc1	23.6 µM
COc1ccc2nc3ccc(OC)cc3c(S(=O)CCCl)c2c1 (stereo not drawn)	3.34 µM
CNc1ccc(OC)cc1S(=O)(=O)c1ccccc1[N+](=O)[O-]	> 100 µM
CC1(CCCO)CCCCCC(C)(CCCO)C1=O (stereo not drawn)	> 100 µM

These compounds were tested on A498 renal (assay: NCI tumour cell line growth inhibition, 48 h).

Structure (SMILES)	TGI
O=Cc1ccc2c(c1)CC1(C2)Cc2ccc3c(c2C1)CCC3 (stereo not drawn)	> 61 µM
CC(=O)Nc1cc(C(=O)Nc2cc(C(=O)N3CC(CCl)c4c3cc(N)c3ccccc43)nn2C)nn1C (stereo not drawn)	< 0.0197 µM
O=C(O)c1n[nH]nc1Cl	> 100 µM
C=C(C)C(CC=C(C)C)CC12CC(CC=C(C)C)C(C)(C)C(CC=C(C)C)(C(=O)C(Cc3ccc(O)c(O)c3)=C1O)C2=O (stereo not drawn)	> 100 µM
NC(Cc1cccc([N+](=O)[O-])c1)C(=O)O (stereo not drawn)	> 100 µM
CCC(=O)NC(Nc1cccc(F)c1C)(C(F)(F)F)C(F)(F)F	> 100 µM
CCCCCN=Cc1c(O)c(O)c(C(C)C)c2cc(C)c(-c3c(C)cc4c(C(C)C)c(O)c(O)c(C=NCCCCC)c4c3O)c(O)c12	> 100 µM
Clc1c(Cl)c(Cl)c2nn(C3CCCO3)nc2c1Cl (stereo not drawn)	> 100 µM
N#C/C(C(=O)Nc1ccccc1)=C(/N)N1CCOCC1	> 100 µM
O/N=C1/COC(C(F)(F)F)(C(F)(F)F)C1	> 100 µM
O=c1[nH]c(-c2ccc3ccccc3c2)nc2ccccc12	> 100 µM
CS(=O)(=O)Nc1ccc(N2Cc3cnc4ccc5[nH]ccc2c5c34)cc1	49.4 µM
COc1ccc(C(=O)Sc2c(-c3ccccc3)c(=O)n(-c3ccccc3)c(=S)n2-c2ccccc2)cc1	44 µM
CCc1nc(N)nc(N)c1-c1ccc(Cl)c(Cl)c1	> 100 µM
COCCOCc1nc(C#N)c(N)o1	> 100 µM
CC1=C(C#N)C(C#N)(C#N)C(NN(C)C)C1 (stereo not drawn)	43 µM
CN1C(=O)N/C(=C\c2ccc(S(=O)(=O)NN)cc2)C1=O	> 100 µM
COc1nc(C(=O)NNC(=O)c2nc(OC)c3ccccc3c2-c2ccccc2)c(-c2ccccc2)c2ccccc12	> 100 µM
CCSc1n/c(=C\c2ccco2)c2nnnn12	> 100 µM
CC(=O)OCc1cc(CCC(=O)NCCNc2c3ccccc3nc3ccccc23)cc(COC(C)=O)c1O[Si](C)(C)C(C)(C)C	6.1 µM
COc1cc(Nc2cnc3cc(F)c(F)cc3n2)cc(OC)c1OC	> 100 µM
Cc1nc2ccccc2c(=O)n1NC(=O)c1ccc(CS)cc1	40.8 µM
COc1ccc2nc3ccc(OC)cc3c(S(=O)CCCl)c2c1 (stereo not drawn)	34 µM
CNc1ccc(OC)cc1S(=O)(=O)c1ccccc1[N+](=O)[O-]	> 100 µM
CC1(CCCO)CCCCCC(C)(CCCO)C1=O (stereo not drawn)	> 100 µM

What follows are compounds tested on CCRF-CEM leukemia (assay: NCI tumour cell line growth inhibition, 48 h).

Structure (SMILES)	TGI
O=Cc1ccc2c(c1)CC1(C2)Cc2ccc3c(c2C1)CCC3 (stereo not drawn)	21.1 µM
CC(=O)Nc1cc(C(=O)Nc2cc(C(=O)N3CC(CCl)c4c3cc(N)c3ccccc43)nn2C)nn1C (stereo not drawn)	0.0491 µM
O=C(O)c1n[nH]nc1Cl	> 100 µM
C=C(C)C(CC=C(C)C)CC12CC(CC=C(C)C)C(C)(C)C(CC=C(C)C)(C(=O)C(Cc3ccc(O)c(O)c3)=C1O)C2=O (stereo not drawn)	> 100 µM
NC(Cc1cccc([N+](=O)[O-])c1)C(=O)O (stereo not drawn)	> 100 µM
CCC(=O)NC(Nc1cccc(F)c1C)(C(F)(F)F)C(F)(F)F	> 100 µM
CCCCCN=Cc1c(O)c(O)c(C(C)C)c2cc(C)c(-c3c(C)cc4c(C(C)C)c(O)c(O)c(C=NCCCCC)c4c3O)c(O)c12	> 100 µM
Clc1c(Cl)c(Cl)c2nn(C3CCCO3)nc2c1Cl (stereo not drawn)	> 100 µM
